Reference: US12582721B2, “Molybdenum-based feed supplement for bees” (UNIVERSITE DE VERSAILLES—SAINT-QUENTIN-EN-YVELINES, priority 2020, dated 2026)

What was measured:
[1] = tested on: families of European domestic bees; test: 2nd test in the hives: power of the bee family; type: in vivo, Apis mellifera carpatica; settings: overall dose 2 mg/hive, 10 hives
Description: The power of the bee colony represents the number of bees present in the honeycomb at the time of the assessment. The assessment is performed three times per year: at the spring visit (March-April), at the end of spring (20-31 May) and at the visit in autumn (September). After these three assessments, the average power of the bee family is determined. The amount of bees (kg) is determined by multiplying the number of intervals between the frames, uniformly occupied by the bees, by the coefficient 0.25 for the standard […] frame (435×300 mm) and by 0.2 for the standard Langstroth frame (435×230 mm). The 2nd test was performed in the same apiary the following year. Feeding with the complex of the invention took place in spring. The biological tests were monitored up to the month of September. The molecules tested, their concentration in solution and their annual overall doses are listed below: • 1. […] The concentration of the complex in syrup: 1.5×10^-7 mol/L. Overall product dose: 2 mg/colony • 2. […] Overall complex dose: 6 mg/colony • 4. LiCH3COO·H2O for comparison, abbreviated as Li-Ac • The feeding is carried out with 2000 g of candy containing 0.8 mg of product then 6 to 7 L of syrup containing 0.2 mg/L of product. The concentration of product in the syrup: 2.36×10^-6 mol/L that is 1.67×10^-5 g/L. Overall product dose: 2 mg/colony

Varroa destructor [2] = test: 2nd test in the hives: degree of infestation of bees with Varroa; type: in vivo; settings: for Degree of infestation with Varroa: 100 = 2.32 mite/10 g of bees; for Degree of infestation with Varroa, change versus batch I: value in brackets
Description: The assessment consists in counting the number of Varroa on a sample of adult bees. The value from this count is used as an index for monitoring the level of parasitism in the colony. The method uses icing sugar and a “shaker” jar made of transparent glass with a capacity of 1 kg. The cover is a mesh made of galvanized steel of the type placed at the bottom of the hive, with a mesh size of 3 mm. The mesh allows Varroa mites to pass through but retains the honey bees. The method is implemented according to the following steps: 40 to 50 g of honey bees are collected in the jar (approximately 400 bees), 100 g of icing sugar is added and the shaker jar is rolled for 1 minute so as to cover every bee in icing sugar. The icing sugar then makes it possible to separate the Varroa mites from the body of the host bee so that they drop off. Leave to rest for 1 minute: bees have a delousing behavior, which helps the Varroa mites to drop off. The icing sugar is sieved over a sieve which makes it possible to retain the Varroa mites and then count them. The result is given as the number of mites per 10 g of bees (approximately 100 bees) and can be expressed as a %. This rate is indicative of the Varroa burden in the colony. […] A moderate rate is between 2 and 5 and, in this case, treatment of the colonies must be scheduled. Finally, a rate greater than 5, requires emergency treatment of the colony. Our tests give a result of around 2% for worker bees. The 2nd test was performed in the same apiary the following year. Feeding with the complex of the invention took place in spring. The biological tests were monitored up to the month of September. The molecules tested, their concentration in solution and their annual overall doses are listed below: • 1. […] The concentration of the complex in syrup: 1.5×10^-7 mol/L. Overall product dose: 2 mg/colony • 2. […] Overall complex dose: 6 mg/colony • 4. LiCH3COO·H2O for comparison, abbreviated as Li-Ac • The feeding is carried out with 2000 g of candy containing 0.8 mg of product then 6 to 7 L of syrup containing 0.2 mg/L of product. The concentration of product in the syrup: 2.36×10^-6 mol/L that is 1.67×10^-5 g/L. Overall product dose: 2 mg/colony

Varroa destructor [3] = test: 2nd test in the hives: degree of larvae infestation with Varroa; type: in vivo; settings: for Degree of larvae infestation with Varroa: 100 = larvae infestation rate of 28.2%; for Degree of larvae infestation with Varroa, change versus batch I: value in brackets
Description: The 2nd test was performed in the same apiary the following year. Feeding with the complex of the invention took place in spring. The biological tests were monitored up to the month of September. The molecules tested, their concentration in solution and their annual overall doses are listed below: • 1. […] The concentration of the complex in syrup: 1.5×10^-7 mol/L. Overall product dose: 2 mg/colony • 2. […] Overall complex dose: 6 mg/colony • 4. LiCH3COO·H2O for comparison, abbreviated as Li-Ac • The feeding is carried out with 2000 g of candy containing 0.8 mg of product then 6 to 7 L of syrup containing 0.2 mg/L of product. The concentration of product in the syrup: 2.36×10^-6 mol/L that is 1.67×10^-5 g/L. Overall product dose: 2 mg/colony [table]

[4] = tested on: healthy Madin-Darby canine kidney epithelial cells of the MDCK line; test: Resazurin cell proliferation test, MDCK cells; type: cell-based; settings: healthy cells; IC50 equal to and greater than 100 μM considered no activity
Description: (§1) For cell culture, human cervical epithelial cells of the HeLa line, human epithelial pancreatic adenocarcinoma cells of the BxPC-3 line and healthy Madin-Darby canine kidney epithelial cells of the MDCK line were used in this study. The Resazurin cell proliferation test was applied according to the literature (S. Anoopkumar-Dukie, J. B. Carey, T. Conere, E. O'Sullivan, F. N. van Pelt, A. Allshire, Br J Radiol 2005, 78, 945, DOI: 10.1259/bjr/54004230). As an indicator of the effectiveness of the experimental compounds on cell proliferation, the median inhibitory concentration (IC50) was used. The lower the IC50 value, the higher the activity (in this case, the cytotoxicity).
(§2) Five formula I complexes were tested in this study in comparison to two reference anti-cancer compounds (“Cisplatin” and Doxorubicin complex).

[5] = tested on: human epithelial pancreatic adenocarcinoma cells of the BxPC-3 line; test: Resazurin cell proliferation test, BxPC-3 cells; type: cell-based; settings: pancreatic cancer cells; IC50 equal to and greater than 100 μM considered no activity
Description: as §1, §2

[6] = tested on: human cervical epithelial cells of the HeLa line; test: Resazurin cell proliferation test, HeLa cells; type: cell-based; settings: cervical cancer cells; IC50 equal to and greater than 100 μM considered no activity
Description: as §1, §2

Row | Structure (SMILES) | Power of the bee family [1] | Degree of infestation with Varroa (Varroa destructor [2]; overall dose 2 mg/hive) | Degree of infestation with Varroa, change versus batch I (Varroa destructor [2]; overall dose 2 mg/hive) [%] | Degree of larvae infestation with Varroa (Varroa destructor [3]; overall dose 2 mg/hive) | Degree of larvae infestation with Varroa, change versus batch I (Varroa destructor [3]; overall dose 2 mg/hive) [%] | IC50, MDCK [4] | IC50, BxPc-3 [5] | IC50, HeLa [6] | Degree of infestation with Varroa (Varroa destructor [2]; overall dose 6 mg/hive) | Degree of infestation with Varroa, change versus batch I (Varroa destructor [2]; overall dose 6 mg/hive) [%] | Degree of larvae infestation with Varroa (Varroa destructor [3]; overall dose 6 mg/hive) | Degree of larvae infestation with Varroa, change versus batch I (Varroa destructor [3]; overall dose 6 mg/hive) [%] | IC50 [4] [µM] | IC50 [5] [µM] | IC50 [6] [µM]
1 | CC(=O)[O-].[Li+] [Li—Ac, LiCH3COO·H2O, reference compound] | 97.5 % relative to batch I | 69.0 % relative to batch I | −31 | 64.9 % relative to batch I | −35.1 |  |  |  |  |  |  |  |  |  | 
2 | O.O.O.O.O.O.O=C([O-])CN(CCN(CC(=O)[O-])CC(=O)[O-])CC(=O)[O-].[Li+].[Li+].[O]=[Mo+]12[O][Mo+]1(=[O])[O]2 [Li—Mo2O4-EDTA, Li2[Mo2O4 (EDTA)]·6H2O] | 120 % relative to batch I | 52.6 % relative to batch I | −47.4 | 42.6 % relative to batch I | −57.4 | Inactive | Inactive | Inactive | 38.4 % relative to batch I | −62.6 | 18.4 % relative to batch I | −81.6 |  |  | 
3 | O.O.O.O.O.O=C([O-])CN(CCN(CC(=O)[O-])CC(=O)[O-])CC(=O)[O-].[Na+].[Na+].[O]=[Mo+]12[O][Mo+]1(=[O])[O]2 [Na—Mo2O4-EDTA, Na2[Mo2O4 (EDTA)]·5H2O] |  |  |  |  |  | Inactive | Inactive | Inactive |  |  |  |  |  |  | 
4 | O=C([O-])CN(CCN(CC(=O)[O-])CC(=O)[O-])CC(=O)[O-].[O]=[Mo+]12[O][Mo+]1(=[O])[O]2.c1ccc([P+](c2ccccc2)(c2ccccc2)c2ccccc2)cc1.c1ccc([P+](c2ccccc2)(c2ccccc2)c2ccccc2)cc1 [PPh4—Mo2O4-EDTA, (PPh4)2[Mo2O4 (EDTA)]·2.5H2O] | 120 % relative to batch I | 60.8 % relative to batch I | −39.2 | 56.0 % relative to batch I | −44.0 |  |  |  |  |  |  |  | 60.7 ± 12.1 | 25.1 ± 7.02 | ≥ 100
